This is an account of results in ChEMBL document CHEMBL5380795, “Design, Synthesis, and Bioactivity Investigation of Cyclic Lipopeptide Antibiotics Containing Eight to Nine Amino Acids” (J Med Chem, 2023).

Series [1] has as its system Escherichia coli. Description: Antibacterial activity against Escherichia coli ATCC BAA-2523 assessed as inhibition of bacterial growth incubated for 18 to 24 hrs by broth microdilution method. The class given is functional. The note with it: time 18-24 hrs.
The test system of series [2] is Staphylococcus epidermidis. Briefly: Antibacterial activity against methicillin resistant Staphylococcus epidermidis clinical isolate 19-6 assessed as inhibition of bacterial growth incubated for 18 to 24 hrs by broth microdilution method. In kind it is functional. The note with it: time 18-24 hrs.
A short description of series [3]: Selectivity index, ratio of IC50 for cytotoxicity against human HK-2 cells to MIC for antibacterial activity against Escherichia coli ATCC BAA-2523. The class given is toxicity, cell-based.
Series [4] has as its system Staphylococcus aureus. Briefly: Antibacterial activity against methicillin resistant Staphylococcus aureus ATCC 33591 assessed as inhibition of bacterial growth incubated for 18 to 24 hrs by broth microdilution method. In kind it is functional. The note with it: time 18-24 hrs.
Series [5] relates to Pseudomonas aeruginosa. Description: Antibacterial activity against Pseudomonas aeruginosa ATCC 27853 assessed as inhibition of bacterial growth incubated for 18 to 24 hrs by broth microdilution method. The class given is functional. Conditions: time 18-24 hrs.
For series [6], the system named is Klebsiella pneumoniae. Briefly: Antibacterial activity against KPC producing Klebsiella pneumoniae ATCC BAA-1705 assessed as inhibition of bacterial growth incubated for 18 to 24 hrs by broth microdilution method. In kind it is functional. The note with it: time 18-24 hrs.
Series [7] relates to Escherichia coli. Description: Antibacterial activity against Escherichia coli NCTC 13353 assessed as inhibition of bacterial growth incubated for 18 to 24 hrs by broth microdilution method. In kind it is functional. The note with it: time 18-24 hrs.
Series [8] deals with Pseudomonas aeruginosa. Briefly: Antibacterial activity against carbapenem resistant Pseudomonas aeruginosa clinical isolate 17-1 assessed as inhibition of bacterial growth incubated for 18 to 24 hrs by broth microdilution method. The class given is functional. The note with it: time 18-24 hrs.
The subject of series [9] is Acinetobacter baumannii. Description: Antibacterial activity against oxacillinase-27 producing Acinetobacter baumannii NCTC 13304 assessed as inhibition of bacterial growth incubated for 18 to 24 hrs by broth microdilution method. The class given is functional. The note with it: time 18-24 hrs.
In series [10] the test system is Klebsiella pneumoniae. Description: Antibacterial activity against carbapenem resistant Klebsiella pneumoniae clinical isolate 19-15 assessed as inhibition of bacterial growth incubated for 18 to 24 hrs by broth microdilution method. In kind it is functional. The note with it: time 18-24 hrs.
Series [11] relates to Staphylococcus aureus. Description: Antibacterial activity against Staphylococcus aureus ATCC 29213 assessed as inhibition of bacterial growth incubated for 18 to 24 hrs by broth microdilution method. The class given is functional. The note with it: time 18-24 hrs.
Series [12] relates to Pseudomonas aeruginosa. Briefly: Antibacterial activity against Pseudomonas aeruginosa clinical isolate 19-1 assessed as inhibition of bacterial growth incubated for 18 to 24 hrs by broth microdilution method. In kind it is functional. Conditions: time 18-24 hrs.
The test system of series [13] is Escherichia coli. Description: Antibacterial activity against Escherichia coli clinical isolate 19-2 assessed as inhibition of bacterial growth incubated for 18 to 24 hrs by broth microdilution method. The class given is functional. The note with it: time 18-24 hrs.
For series [14], the system named is Escherichia coli. Description: Antibacterial activity against KPC producing Escherichia coli ATCC BAA-2340 assessed as inhibition of bacterial growth incubated for 18 to 24 hrs by broth microdilution method. In kind it is functional. Conditions: time 18-24 hrs.
In series [15] the test system is Pseudomonas aeruginosa. Description: Antibacterial activity against carbapenem resistant Pseudomonas aeruginosa clinical isolate 19-3 assessed as inhibition of bacterial growth incubated for 18 to 24 hrs by broth microdilution method. The class given is functional. Conditions: time 18-24 hrs.
Series [16] is described as follows: Cytotoxicity against human HK-2 cells assessed as inhibition of cell growth incubated for 72 hrs by CCK-8 assay. The class given is toxicity, cell-based.
Series [17] relates to Acinetobacter baumannii. Briefly: Antibacterial activity against carbapenem resistant Acinetobacter baumannii clinical isolate 19-8 assessed as inhibition of bacterial growth incubated for 18 to 24 hrs by broth microdilution method. In kind it is functional. Conditions: time 18-24 hrs.
Series [18] deals with Klebsiella pneumoniae. Briefly: Antibacterial activity against carbapenem resistant Klebsiella pneumoniae clinical isolate 19-17 assessed as inhibition of bacterial growth incubated for 18 to 24 hrs by broth microdilution method. In kind it is functional. The note with it: time 18-24 hrs.
Series [19] has as its system Staphylococcus epidermidis. Description: Antibacterial activity against methicillin resistant Staphylococcus epidermidis clinical isolate 19-5 assessed as inhibition of bacterial growth incubated for 18 to 24 hrs by broth microdilution method. The class given is functional. Conditions: time 18-24 hrs.

≈ marks a conversion by molar mass, not a printed value.

Consider `CCCCCCCCCC(=O)N[C@H](CCN)C(=O)N[C@H]1CCCNC(=O)[C@H]([C@@H](C)O)NC(=O)[C@H](CCN)NC(=O)[C@H](CCN)NC(=O)[C@H](CC(C)C)NC(=O)[C@@H](CC(C)C)NC(=O)[C@H](CCN)NC1=O`, for which the MIC in the series with Escherichia coli [1] was 16 µg/mL (≈ 16.1 µM); in series [2], 32 µg/mL (≈ 32.1 µM); with Staphylococcus aureus [4], more than 64 µg/mL; in the series on Pseudomonas aeruginosa [5] it was 4 µg/mL (≈ 4.01 µM); in the series with Klebsiella pneumoniae [6] it was 16 µg/mL (≈ 16.1 µM); with Escherichia coli [7], 32 µg/mL (≈ 32.1 µM). Further, the MIC with Pseudomonas aeruginosa [8] is 4 µg/mL (≈ 4.01 µM); in the series on Acinetobacter baumannii [9], more than 64 µg/mL; with Klebsiella pneumoniae [10], 16 µg/mL (≈ 16.1 µM); with Staphylococcus aureus [11], more than 64 µg/mL; with Pseudomonas aeruginosa [12], 4 µg/mL (≈ 4.01 µM); in the series on Escherichia coli [13], 16 µg/mL (≈ 16.1 µM). Further, the MIC is 16 µg/mL (≈ 16.1 µM) in the series with Escherichia coli [14]; 2 µg/mL (≈ 2.01 µM) in the series on Pseudomonas aeruginosa [15]; more than 64 µg/mL in the series on Acinetobacter baumannii [17]; 64 µg/mL (≈ 64.2 µM) with Klebsiella pneumoniae [18]; 4 µg/mL (≈ 4.01 µM) in series [19]. Further, the selectivity ratio in series [3] was 9.9. Also, the IC50 at 72 h in series [16] came to 158 µg/mL (≈ 159 µM).
For `CCCCCCCC(=O)N[C@H](CCN)C(=O)N[C@H]1CCNC(=O)[C@H](CC(C)C)NC(=O)[C@H](CCN)NC(=O)[C@H](CCN)NC(=O)[C@H](CC(C)C)NC(=O)[C@@H](CC(C)C)NC(=O)[C@H](CCN)NC1=O`, the MIC in the series on Escherichia coli [1] is 32 µg/mL (≈ 33.1 µM); in series [2] it was 64 µg/mL (≈ 66.2 µM); with Staphylococcus aureus [4], more than 64 µg/mL; in the series with Pseudomonas aeruginosa [5] it was 1 µg/mL (≈ 1.03 µM); in the series on Klebsiella pneumoniae [6], 2 µg/mL (≈ 2.07 µM); in the series with Escherichia coli [7], 16 µg/mL (≈ 16.6 µM). Besides, the MIC is 2 µg/mL (≈ 2.07 µM) in the series on Pseudomonas aeruginosa [8]; 8 µg/mL (≈ 8.28 µM) with Acinetobacter baumannii [9]; 16 µg/mL (≈ 16.6 µM) in the series on Klebsiella pneumoniae [10]; more than 64 µg/mL in the series with Staphylococcus aureus [11]; 8 µg/mL (≈ 8.28 µM) in the series with Pseudomonas aeruginosa [12]; 32 µg/mL (≈ 33.1 µM) in the series on Escherichia coli [13]. Moreover, the MIC in the series with Escherichia coli [14] was 2 µg/mL (≈ 2.07 µM); in the series with Pseudomonas aeruginosa [15], 4 µg/mL (≈ 4.14 µM); in the series with Acinetobacter baumannii [17], 16 µg/mL (≈ 16.6 µM); in the series on Klebsiella pneumoniae [18], 16 µg/mL (≈ 16.6 µM); in series [19] it was 8 µg/mL (≈ 8.28 µM). Further, the selectivity ratio in [3] was 6.2. In [16], the IC50 at 72 h was found to be 198 µg/mL (≈ 205 µM).
For `CCCCCCCCCC(=O)N[C@H](CCN)C(=O)N[C@H]1CCNC(=O)[C@H]([C@@H](C)O)NC(=O)[C@H](CCN)NC(=O)[C@H](CCN)NC(=O)[C@@H](CC(C)C)NC(=O)[C@@H](CC(C)C)NC(=O)[C@H](CCN)NC1=O`, the MIC in the series with Escherichia coli [1] was 64 µg/mL (≈ 65.2 µM); in [2], 32 µg/mL (≈ 32.6 µM); in the series on Staphylococcus aureus [4], more than 64 µg/mL; in the series on Pseudomonas aeruginosa [5], 64 µg/mL (≈ 65.2 µM); in the series on Klebsiella pneumoniae [6] it was more than 64 µg/mL; in the series with Escherichia coli [7] it was 64 µg/mL (≈ 65.2 µM). The MIC with Pseudomonas aeruginosa [8] was 64 µg/mL (≈ 65.2 µM); in the series with Acinetobacter baumannii [9], more than 64 µg/mL; in the series on Klebsiella pneumoniae [10] it was 64 µg/mL (≈ 65.2 µM); with Staphylococcus aureus [11], more than 64 µg/mL; with Pseudomonas aeruginosa [12], 64 µg/mL (≈ 65.2 µM); in the series with Escherichia coli [13] it was 64 µg/mL (≈ 65.2 µM). In addition, the MIC in the series on Escherichia coli [14] is 64 µg/mL (≈ 65.2 µM); in the series with Pseudomonas aeruginosa [15], 64 µg/mL (≈ 65.2 µM); in the series on Acinetobacter baumannii [17], more than 64 µg/mL; with Klebsiella pneumoniae [18], more than 64 µg/mL; in series [19] it was 2 µg/mL (≈ 2.04 µM). Also, in series [3], the selectivity ratio came out at 1.4. For the same compound, the IC50 at 72 h in series [16] amounted to 87.5 µg/mL (≈ 89.1 µM).
Take `CCCCCCC[C@@H](O)CC(=O)N[C@H](CCN)C(=O)N[C@H]1CCNC(=O)[C@H]([C@@H](C)O)NC(=O)[C@H](CCN)NC(=O)[C@H](CCN)NC(=O)[C@H]([C@@H](C)O)NC(=O)[C@@H](CC(C)C)NC(=O)[C@H](CCN)NC1=O`: the MIC in the series with Escherichia coli [1] is 2 µg/mL (≈ 2.03 µM); in [2], more than 64 µg/mL; in the series on Staphylococcus aureus [4] it was more than 64 µg/mL; in the series on Pseudomonas aeruginosa [5], 0.25 µg/mL (≈ 0.253 µM); with Klebsiella pneumoniae [6] it was 4 µg/mL (≈ 4.06 µM); with Escherichia coli [7] it was 16 µg/mL (≈ 16.2 µM). Besides, the MIC in the series with Pseudomonas aeruginosa [8] is 0.5 µg/mL (≈ 0.507 µM); with Acinetobacter baumannii [9], more than 64 µg/mL; in the series on Klebsiella pneumoniae [10] it was 16 µg/mL (≈ 16.2 µM); in the series with Staphylococcus aureus [11], more than 64 µg/mL; with Pseudomonas aeruginosa [12], 0.5 µg/mL (≈ 0.507 µM); with Escherichia coli [13] it was 16 µg/mL (≈ 16.2 µM). The MIC with Escherichia coli [14] is 4 µg/mL (≈ 4.06 µM); in the series with Pseudomonas aeruginosa [15], 0.5 µg/mL (≈ 0.507 µM); in the series with Acinetobacter baumannii [17], more than 64 µg/mL; with Klebsiella pneumoniae [18] it was 64 µg/mL (≈ 64.9 µM); in series [19], more than 64 µg/mL. In series [3], the selectivity ratio was 205. The IC50 at 72 h in series [16] turned out to be 411 µg/mL (≈ 417 µM).
